Positions count from the first letter of the chain named.
Experiments:
zebrafish Tgds [1] = target: T1, zebrafish Tgds (Danio rerio, UniProt A0AC58JQE1); assay: cycling assay of NAD+ tightly bound to the purified protein; assay type: binding; conditions: co-purified, tightly bound cofactor; protein from calculated extinction coefficient at 280 nm
T1 construct: full coding region (347 residues) from ovary cDNA, pET-28a NdeI/XhoI, N-terminal 6xHis tag (cutting not mentioned), E. coli BL21 DE
T1 sequence (A0AC58JQE1 1-347): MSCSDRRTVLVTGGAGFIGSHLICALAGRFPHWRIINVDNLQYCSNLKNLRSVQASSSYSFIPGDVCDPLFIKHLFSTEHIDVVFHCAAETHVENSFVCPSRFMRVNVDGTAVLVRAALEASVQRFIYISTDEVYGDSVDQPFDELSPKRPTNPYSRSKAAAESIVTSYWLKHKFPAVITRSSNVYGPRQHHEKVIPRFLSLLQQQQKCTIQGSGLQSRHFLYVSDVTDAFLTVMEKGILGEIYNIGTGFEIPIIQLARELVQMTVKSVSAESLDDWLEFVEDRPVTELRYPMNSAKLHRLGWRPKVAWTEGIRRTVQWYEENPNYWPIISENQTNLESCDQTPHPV
Description: (§1) cycling assay of NAD+ tightly bound to the purified protein on zebrafish Tgds

zebrafish Tgds [2] = target: T2, zebrafish Tgds (Danio rerio, UniProt A0AC58JQE1, A89S); assay: as above; assay type: binding; conditions: co-purified, tightly bound cofactor; protein from calculated extinction coefficient at 280 nm
T2 construct: full coding region (347 residues) from ovary cDNA, pET-28a NdeI/XhoI, N-terminal 6xHis tag (cutting not mentioned), E. coli BL21 DE
T2 sequence (A0AC58JQE1 1-347 A89S): T1 sequence (A0AC58JQE1 1-347) with A89S
Description: as §1

zebrafish Tgds [3] = target: T3, zebrafish Tgds (Danio rerio, UniProt A0AC58JQE1, E79G); assay: as above; assay type: binding; conditions: co-purified, tightly bound cofactor; protein from calculated extinction coefficient at 280 nm
T3 construct: full coding region (347 residues) from ovary cDNA, pET-28a NdeI/XhoI, N-terminal 6xHis tag (cutting not mentioned), E. coli BL21 DE
T3 sequence (A0AC58JQE1 1-347 E79G): T1 sequence (A0AC58JQE1 1-347) with E79G
Description: as §1

zebrafish Tgds [4] = target: T4, zebrafish Tgds (Danio rerio, UniProt A0AC58JQE1, Y223H); assay: as above; assay type: binding; conditions: co-purified, tightly bound cofactor; protein from calculated extinction coefficient at 280 nm
T4 construct: full coding region (347 residues) from ovary cDNA, pET-28a NdeI/XhoI, N-terminal 6xHis tag (cutting not mentioned), E. coli BL21 DE
T4 sequence (A0AC58JQE1 1-347 Y223H): T1 sequence (A0AC58JQE1 1-347) with Y223H
Description: as §1

zebrafish Tgds [5] = target: T1, zebrafish Tgds; assay: anion exchange HPLC; assay type: biochemical; conditions: PBS pH 7.3, 30 °C

| SMILES | NAD^+/protein molar ratio ^d (zebrafish Tgds [1]) | NAD^+/protein molar ratio ^d (zebrafish Tgds [2]) | NAD^+/protein molar ratio ^d (zebrafish Tgds [3]) | NAD^+/protein molar ratio ^d (zebrafish Tgds [4]) | anion exchange HPLC (zebrafish Tgds [5]) |
| --- | --- | --- | --- | --- | --- |
| NC(=O)c1ccc[n+]([C@@H]2O[C@H](COP(=O)(O)OP(=O)(O)OC[C@H]3O[C@@H](n4cnc5c(N)ncnc54)[C@H](O)[C@@H]3O)[C@@H](O)[C@H]2O)c1 [NAD^+] | 0.55 mol/mol | 0.39 mol/mol | 0.16 mol/mol | 0.04 mol/mol | – |
| Cc1cn([C@H]2C[C@H](O)[C@@H](COP(=O)(O)OP(=O)(O)O[C@H]3O[C@H](CO)[C@@H](O)[C@H](O)[C@H]3O)O2)c(=O)[nH]c1=O [TDP‐D‐glucose] | – | – | – | – | The enzyme exhibited lower activity with TDP‐D‐glucose |

Source: article PMC13080230, “Zebrafish as a model for Catel–Manzke syndrome—identification and characterization of the zebrafish TGDS ortholog” (The Febs Journal, 2025)
